Patent US9393192B2, “Methods and dosage forms for controlled delivery of paliperidone and risperidone” (ALZA CORPORATION, priority 2002, dated 2016)

Assays:
[1] = stability testing / degradation of paliperidone; assay type: physicochemical; details: stress conditions, stability testing (FIGS. 7, 8, 9A, 9B)
Description: FIGS. 8, 9A and 9B illustrate the increased stability of paliperidone in the dosage forms incorporating the protective subcoat compared to dosage forms not incorporating the protective subcoat.

[2] = cited from earlier work
[3] = in vivo; cited from earlier work

Structure (SMILES) | degradation / stability [1] | solubility in water [2] | half-life [3]
Cc1nc2n(c(=O)c1CCN1CCC(c3noc4cc(F)ccc34)CC1)CCCC2O (stereo not shown) [paliperidone] | degrades into notable amounts of impurities | practically insoluble in water | about one
Cc1nc2n(c(=O)c1CCN1CCC(c3noc4cc(F)ccc34)CC1)CCCC2 [risperidone] |  | practically insoluble in water | 
